{"source": "patent US9249157B2", "about": "“Tricyclic heterocycle compounds” (BRISTOL-MYERS SQUIBB COMPANY, priority 2012, dated 2016)", "key": {"[1]": {"test": "High Throughput Metabolic Stability Panel, monkey microsomes", "format": "in vitro ADME", "settings": "10 minute incubation, 0.5 μM, control compound expected range", "protocol": "(§1) High Throughput (HT) Metabolic Stability Panel\n(§2) The metabolic stability assay evaluated CYP-mediated metabolic stability in vitro using human, rat, mouse, dog, and/or monkey microsomes after a ten-minute incubation. Each compound was tested in duplicate.\n(§3) Test compound was received as a 3.5 mM stock solution in 100 percent DMSO. The test compound was diluted to create a 50 μM acetonitrile (ACN) solution containing 1.4% DMSO, which was then used as a 100× stock for incubation with microsomes. Each compound was tested in duplicate separately in each of three species in the Metabolic Stability-Human, Rat, and Mouse assay suite or as individual species in the Metabolic Stability-Dog or Metabolic Stability-Monkey suites. Compound, NADPH, and liver microsome solutions were combined for incubation in three steps:\n(§4) 1. 152 μl of liver microsome suspension, protein concentration of 1.1 mg/ml in 100 mM NaPi, pH 7.4, 5 mM MgCl2 buffer, was pre-warmed at 37° C.\n(§5) 3. The reaction was initiated by the addition of 17 μl of pre-warmed 10 mM NADPH solution in 100 mM NaPi, pH 7.4.\n(§6) The reaction components were mixed well, and 75 μl of the reaction mixture was immediately transferred into 150 μl quench/stop solution (zero-time point, T0). Reactions were incubated at 37° C. for 10 minutes and then an additional 75 μl aliquot was transferred into 150 μl quench solution. […]"}, "[2]": {"test": "High Throughput Metabolic Stability Panel, human microsomes", "format": "in vitro ADME", "settings": "10 minute incubation, 0.5 μM, control compound expected range", "protocol": "as §1, §2, §3, §4, §5, §6"}, "[3]": {"test": "High Throughput Metabolic Stability Panel, dog microsomes", "format": "in vitro ADME", "settings": "10 minute incubation, 0.5 μM, control compound expected range", "protocol": "as §1, §2, §3, §4, §5, §6"}, "[4]": {"test": "High Throughput Metabolic Stability Panel, rat microsomes", "format": "in vitro ADME", "settings": "10 minute incubation, 0.5 μM, control compound expected range", "protocol": "as §1, §2, §3, §4, §5, §6"}, "[5]": {"test": "High Throughput Metabolic Stability Panel, mouse microsomes", "format": "in vitro ADME", "settings": "10 minute incubation, 0.5 μM, control compound expected range", "protocol": "as §1, §2, §3, §4, §5, §6"}, "TALL1": {"system": "TALL1", "test": "Human Tumor Xenograft Models in Mice, TALL1", "format": "in vivo", "settings": "60 mg/kg, QDx10, oral administration; LCK = Log Cell Kill", "source_text": "Human Tumor Xenograft Models in Mice\nAll rodents were obtained from Harlan Sprague Dawley Co. (Indianapolis, Ind.), and maintained in an ammonia-free environment in a defined and pathogen—free colony. All mice were quarantined approximately 1 week prior to their use for tumor propagation and drug efficacy testing. Mice were fed food and water ad libitum. The animal care program of Bristol-Myers Squibb Pharmaceutical Research Institute is fully accredited by the American Association for Accreditation of Laboratory Animal Care (AAALAC). All experiments were performed in accordance with Bristol-Myers Squibb (BMS) animal test methods and guidelines. […]\nThe required numbers of animals needed to detect a meaningful response were pooled at the start of the experiment and each was given a subcutaneous implant of a tumor fragment (˜20 mg) with a 13-gauge trocar. Tumors were allowed to grow to the pre-determined size window (tumors outside the range were excluded) and animals were evenly distributed to various treatment and control groups. […]\nTumor response was determined by measurement of tumors with a caliper twice a week, until the tumors reached a predetermined “target” size of 0.5 gm or 1 gm depending on the tumor type. […]\nTumor response criteria are expressed in terms of tumor growth inhibition (% TGI). […] For this purpose, the tumor weight of a group is expressed as […] tumor weight (MTW). […]"}, "human Notch 3": {"system": "human Notch 3", "test": "Notch-CBF1 Transactivation Assay (Notch 3)", "format": "cell-based", "settings": "HeLa cells transfected with truncated Notch 3 and CBF1 luciferase reporter; 18 hours incubation", "source_text": "Notch-CBF1 Transactivation Assay\nThe Notch-CBF1 (C-promoter binding factor I) cell based transactivation assay is based on the ability of the released Notch intracellular domain fragments (NICDs) to function as transcription factors in conjunction with CBF1 and other nuclear factors. Luciferase assays were used to measure the antagonism of Notch-CBF1 transcriptional activity. HeLa cervical cancer cells are transiently co-transfected with pCDNA3.1/Hygro plasmids containing truncated Notch 1, Notch 2, Notch 3, or Notch 4 receptors and a PGL3 luciferase reporter vector containing 4 copies of CBF1 binding site. The cells were then tested for Notch-CBF1 activity in the absence or presence of test compounds. HeLa cells, maintained in DMEM (high glucose with HEPES), 1× glutamine/penicillin/streptomycin and 10% Fetal Bovine serum, were transiently transfected in a T175 Flask (4.5×10^6 cells/flask) using the Monster Transfection Kit (Minis #MIR2906) according to manufacturers specifications. Table 1 denotes respective DNA quantity for the transfections.\nSix hours post-transfection, cells were trypsinized and plated into a 384-well black Poly-D-lysine coated tissue culture plate at a density of 5×10^3 cells/well in 95 μL assay media (DMEM (high glucose with HEPES), 1× glutamine/penicillin/streptomycin, 0.0125% BSA, 1× non-essential amino acids). Assay media (5 μL) containing test compounds in final concentrations ranging from 5 μM to 8.4×10^−5 μM (3 fold serial dilutions) were added to the cells and the cell plates were then incubated for 18 hours at 37° C. and 5% CO2. Control wells contained DMSO vehicle (total counts) or 0.5 μM of an in-house small molecule inhibitor (background counts). Duplicates were used for each sample. Luciferase activity was measured after a 20-minute incubation with 50 μl STEADY-GLO® luciferase reagents according to manufacturer's specifications (Promega, Cat. #E2550) and analyzed by Envision plate reader (PerkinElmer, Boston, Mass.).\nThe antagonist effect of compounds was expressed as 100×[1−(average sample−average background)/(average total−average background)] where sample is the luciferase activity in the presence of test compound, background is equal to the luciferase activity in the presence of the small molecule inhibitor control and the total is signal induced in DMSO wells."}}, "note": "pIC50: −log10 of the molar value."}
{"smiles": "CCc1nn(CCCN2CCN(c3cccc(Cl)c3)CC2)c(=O)n1CCOc1ccccc1", "note": "[Nefazodone]", "values": [{"measurement": "Average Percent Remaining ± SD, Monkey", "setting": "[1]", "value": "0.6 ± 0.5", "unit": "%"}, {"measurement": "Average Percent Remaining ± SD, Human", "setting": "[2]", "value": "0.4 ± 0.4", "unit": "%"}, {"measurement": "Average Percent Remaining ± SD, Dog", "setting": "[3]", "value": "0.4 ± 0.4", "unit": "%"}, {"measurement": "Average Percent Remaining ± SD, Rat", "setting": "[4]", "value": "0.7 ± 0.6", "unit": "%"}, {"measurement": "Average Percent Remaining ± SD, Mouse", "setting": "[5]", "value": "0.4 ± 0.3", "unit": "%"}]}
{"smiles": "CCC[C@H](C(N)=O)[C@@H](CCC(F)(F)F)C(=O)N[C@H]1N=C(c2ccccc2)c2cccc3c2N(CCO3)C1=O", "note": "[Example 7, (2R,3S)—N-((6S)-5-Oxo-8-phenyl-2,3,5,6-tetrahydro[1,4]oxazino[2,3,4-jk][1,4]benzodiazepin-6-yl)-3-propyl-2-(3,3,3-trifluoropropyl)succinamide]", "values": [{"measurement": "Antitumor Activity TALL1 (LCK)", "setting": "TALL1", "value": 0.7}, {"measurement": "pIC50", "setting": "human Notch 3", "value": 7.83}]}
